This note sets out measurements from patent publication EP4656630A1, “NOVEL COMPOUND AS LYSYL-TRNA SYNTHETASE 1 INHIBITOR, AND USE THEREOF” (Zymedi Co., Ltd., priority 2023, dated 2024).

The test system of one series is Raw 264.7 cells. Description: LN (Laminin 421)-induced immune cell migration, Transwell. The format is cell-based. Conditions: Mus musculus, RAW264.7; for inhibition at 3 µM: 3 µM compound, LN (Laminin 421 1 µg/ml), 24 hours, % inhibition compared to control group, read-out: Migration inhibitor % (3uM). The protocol: Cell migration was assessed based on the method described in the prior literature (Park, S. G. et al. Human lysyl-tRNA synthetase is secreted to trigger proinflammatory response. Proceedings of the National Academy of Sciences, 2005, 102.18: 6356-6361.). The specific experimental method is as follows. A Transwell (Corning#3421-5µm pore) was coated with gelatin (0.5mg/ml), and then Raw 264.7 cells (1 x 10^5 cells/well) were seeded in the upper chamber. Serum-free medium (Serum Free DMEM, 500 µl) containing LN (Laminin 421 1 µg/ml) was added to the lower chamber. Each compound was treated at a concentration of 3µM in the upper chamber. After 24 hours, the cells were fixed with 70% methanol for 30 minutes and stained with 50% hematoxylin for 30 minutes. Non-migrating cells on the upper side of the membrane were removed with a cotton swab, and the membrane was mounted on a slide. Migrating cells on the lower side of the membrane were observed under a high-power microscope, and the number of cells was measured from the obtained images and expressed as the inhibition rate (% inhibition) compared to the control group.

Series [1] can be described thus: Microsomal metabolic stability, rat. It counts as in vitro ADME. The protocol:
(§1) Metabolic stability (MS) evaluation was conducted for the selected compounds by measuring in vitro stability in two species, rat and human, according to the microsomal stability measurement method. As a result, it was identified that MS varied depending on the transformation of parts A, B, and C.

The next series deals with Raw264.7 cells. Description: KARS1-induced trans-migration assay. Conditions: Mus musculus, RAW264.7; for inhibition at 1 µM: 1 µM compound, read-out: KARS1-induced Raw264.7 cell migration (% inhibition, 1uM). The format is cell-based, mouse. The protocol: C0001 inhibits the binding of KARS1 and 67LR, thereby blocking the migration of monocytes/macrophages and suppressing inflammation. Accordingly, a trans-migration assay using mouse macrophages (Raw264.7) was conducted to preliminarily screen drugs that inhibit the migration of monocytes/macrophages.
Based on this, when KARS1 protein was directly treated externally instead of LN, the trans-migration of Raw264.7 was induced, and the cell migration inhibitory effect of the KARS1 inhibitor C0001 was confirmed. It was verified that C0001, which specifically binds to KARS1, can inhibit cell migration by binding to extracellular KARS1, in addition to the mechanism of inhibiting cell membrane migration of KARS1 induced by laminin and its binding to 67LR, thereby enabling this analysis to be used as a direct method for evaluating in vitro activity against KARS1.
Next, preliminary candidate substances with high inhibitory activity at 1 µM were treated at concentrations of 0.1~4 µM for analysis.

Series [2] in a line: Microsomal metabolic stability, human. The format is in vitro ADME. The protocol:
as §1

The nature of series [3]: Rat pharmacokinetics (po and iv) and bioavailability. It counts as in vivo. The following applies: for Cmax / Tmax / half-life / AUC: in vivo; for AUC value increase at 30 mpk: 30 mpk compared with 10 mpk. The protocol:
For this purpose, formulations suitable for peroral administration (po) and intravenous injection (iv) for each compound were first selected to ensure stable PK progression.
The formulation was selected under the condition of maintaining a clear solution for more than 1 hour at 10 and 30 mpk doses based on po, and the iv formulation was modified when iv use was not possible based on po (Table 8).
To confirm the oral administration potential of the selected compounds, 10 mpk rat po PK was conducted. The PK profile and key indicators after administering 10 mpk to five compounds, C0001, 25, 41, 42, and 43, are shown in Figure 3 and Table 9.
Based on the previous 10 mpk po rat PK results, 30 mpk po rat PK was conducted for four compounds, C0001, 25, 41, and 43, to confirm changes in the blood PK profile of the substances with increasing doses.
For these compounds, 2 mpk iv rat PK was conducted to calculate bioavailability (BA) (Table 11).

A further series addresses T1, KARS1 and 37LR (Homo sapiens, UniProt Q15046).
T1 construct: KARS1 (1-207aa)
Kind of series: Cell-free ELISA of KARS1 and 37LR (laminin receptor) binding. The following applies: 10 µM compound, 1 hour, plate coated with KARS1 (1-207aa), LRF. The protocol: Next, based on the mechanism of action, a cell-free ELISA analysis was conducted to select compounds with high inhibitory activity on the binding of KARS1 and LR (laminin receptor).

A short description of the next series: Organ distribution. The format is in vivo. On the set-up: Organ distribution Plasma (ng/ml): concentration or dose not given beside the values.
Series [4] is described as follows: S9 metabolic stability, dog. The format is in vitro ADME. The procedure: (§2) Among these, secondary MS measurements were conducted for Compound 25 (C0047), Compound 43 (C0216), and C0001 using the S9 method. This test measured the remaining % at 30, 45, and 60 minutes for four species: mouse, rat, dog, and human.
Series [5] in a line: S9 metabolic stability, human. It counts as in vitro ADME. The protocol:
as §2

Series [6] can be described thus: S9 metabolic stability, rat. It counts as in vitro ADME. The protocol:
as §2

Series [7] is described as follows: S9 metabolic stability, mouse. The format is in vitro ADME. The protocol:
as §2

The structures appear in SMILES notation. A value given as a limit tells only on which side of the number the result lay.

T1 sequence (Q15046 1-207): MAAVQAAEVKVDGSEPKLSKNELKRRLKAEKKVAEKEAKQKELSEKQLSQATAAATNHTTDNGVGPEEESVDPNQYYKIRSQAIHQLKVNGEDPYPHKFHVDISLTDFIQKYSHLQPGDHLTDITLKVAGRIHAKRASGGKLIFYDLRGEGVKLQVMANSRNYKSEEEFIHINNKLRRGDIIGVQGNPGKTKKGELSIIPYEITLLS

Regarding `COc1ccc(CCN(c2nc3cccc(F)c3s2)C(C)c2cccc(N3CC[C@@H](C(=O)O)C3)c2)cc1` (stereo partly drawn) [Compound 41, (3R)-1-(3-(1-((7-fluorobenzo[d]thiazol-2-yl)(4-methoxyphenethyl)-amino)ethyl)phenyl)pyrrolidine-3-carboxylic acid], in the series with Raw 264.7 cells, the inhibition at 3 µM worked out at 58.7%. Also, the “Metabolic stability (% remaining at 30 min) Rat” value in series [1] is recorded as 58%. Besides, the inhibition at 1 µM in the series with Raw264.7 cells is 90.2%. The “Metabolic stability (% remaining at 30 min) Human” value in series [2] is given as 51%. Moreover, in series [3] (10 mg/kg, po, 10 mpk), the Cmax came out at 4230 ng/mL, the Tmax stood at 0.83 h and the half-life is 1.96 h. In series [3] (30 mg/kg, po, 30 mpk), the peak level (Cmax) was 6470 ng/mL, the Tmax came to 1 h and the half-life is 2.13 h. This molecule yielded an AUC in series [3] (po, 30 mg/kg, 30 mpk) of 28500 ng·h/mL. In addition, the “AUC (ng*h/ml)” value in series [3] (po, 10 mpk, 10 mg/kg) is “exceeding 5,000 ng*h/ml”. Besides, the “AUC (ng*h/ml)” value in series [3] (po, 10 mpk, listed as 41 (C0189), 10 mg/kg) was 11,859 ng*h/ml. Moreover, the “AUC value increase at 30 mpk” value in series [3] (po) is given as “approximately 2.4 times”. This molecule also displayed an inhibition at 10 µM on KARS1 and 37LR of 69.6%.
As to `COc1ccc(CCN(Cc2ccc(N3CC[C@H](C(=O)O)C3)cc2)c2nc3cccc(F)c3s2)cc1` [Compound 25, (S)-1-(4-(((7-fluorobenzo[d]thiazol-2-yl)(4-methoxyphenethyl)amino)-methyl)phenyl)pyrrolidine-3-carboxylic acid], the figures for the “Organ distribution (ratio per plasma) Brain” value in “Organ distribution” (0.5 h) and in the series “Organ distribution” (6.0 h) were 0.06 and 0.54, respectively. The “Organ distribution (ratio per plasma) Heart” value is recorded as 0.29 in “Organ distribution” (0.5 h) and 0.52 in the series “Organ distribution” (6.0 h). For the same molecule, the figures for the “Organ distribution (ratio per plasma) Kidney” value in the series “Organ distribution” (0.5 h) and in the series “Organ distribution” (6.0 h) were 0.38 and 0.79, respectively. In addition, the “Organ distribution (ratio per plasma) Liver” value in the series “Organ distribution” (0.5 h) came to 0.85; in the series “Organ distribution” (6.0 h), 3.15. Also, the “Organ distribution (ratio per plasma) Lung” value in “Organ distribution” (0.5 h) is on record as 0.41; in the series “Organ distribution” (6.0 h), 1.05. The “Organ distribution Plasma (ng/ml)” value in “Organ distribution” (0.5 h) was 29,901 ng/ml; in “Organ distribution” (6.0 h), 1,499 ng/ml. Besides, the inhibition at 3 µM in the series on Raw 264.7 cells worked out at 83%. Besides, the EC50 with Raw 264.7 cells (LN-induced cell migration, read-out: EC50 for cell migration inhibition induced by LN) was 5.96 µM; in the series with Raw264.7 cells (KARS1-induced cell migration, 0.1~4 µM), 0.57 µM. The “Metabolic stability (% remaining at each time) Dog (min) 30” value in [4] (30 min) is 100.6%. Further, the “Metabolic stability (% remaining at each time) Dog (min) 45” value in series [4] (45 min) is recorded as 93.5%. The “Metabolic stability (% remaining at each time) Dog (min) 60” value in series [4] (60 min) amounted to 97.0%. Also, in series [5] (30 min), the “Metabolic stability (% remaining at each time) Human (min) 30” value amounted to 70.1%. Moreover, the “Metabolic stability (% remaining at each time) Human (min) 45” value in series [5] (45 min) was found to be 75.8%. Moreover, the “Metabolic stability (% remaining at each time) Human (min) 60” value in [5] (60 min) was 66.8%. In series [6] (30 min), the “Metabolic stability (% remaining at each time) Rat (min) 30” value is given as 86.0%. Moreover, the “Metabolic stability (% remaining at each time) Rat (min) 45” value in [6] (45 min) was 84.1%. The “Metabolic stability (% remaining at each time) Rat (min) 60” value in [6] (60 min) is 88.5%. For the same molecule, in series [1], the “Metabolic stability (% remaining at 30 min) Rat” value stood at 77%. Further, the inhibition at 1 µM in the series with Raw264.7 cells came to 96.2%. Moreover, the “Metabolic stability (% remaining at 30 min) Human” value in [2] was 66%. Further, the Cmax stood at 1750 ng/mL in [3] (10 mg/kg, po, 10 mpk) and 14400 ng/mL in series [3] (30 mg/kg, po, 30 mpk). Moreover, the Tmax in series [3] (10 mg/kg, po, 10 mpk) came out at 1 h; in series [3] (30 mg/kg, po, 30 mpk) it was 2 h. Moreover, the half-life in series [3] (10 mg/kg, po, 10 mpk) was 1.34 h; in series [3] (30 mg/kg, po, 30 mpk), 0.76 h. The AUC in series [3] (iv, 2 mg/kg, 2 mpk) was 2410 ng·h/mL; in series [3] (po, 10 mg/kg, 10 mpk) it was > 5000 ng·h/mL; in [3] (po, 10 mg/kg, 10 mpk (Table 11)), 5410 ng·h/mL; in series [3] (po, 30 mg/kg, 30 mpk), 53000 ng·h/mL; in series [3] (po, 30 mg/kg, 30 mpk (Table 11)), 53000 ng·h/mL. Also, the “BA (%)” value came to 44.9% in series [3] (po, 10 mpk against iv 2 mpk) and 146.6% in series [3] (po, 30 mpk against iv 2 mpk). The “AUC (ng*h/ml)” value in series [3] (po, 10 mpk, listed as 25 (C0047), 10 mg/kg) is given as 5,109 ng*h/ml. The “AUC value increase at 30 mpk” value in [3] (po) was 10.4 times. In addition, the “Metabolic stability (% remaining at each time) Mouse (min) 30” value in series [7] (30 min) was determined as 70.5%. Besides, the “Metabolic stability (% remaining at each time) Mouse (min) 45” value in series [7] (45 min) is on record as 71.7%. Besides, the “Metabolic stability (% remaining at each time) Mouse (min) 60” value in series [7] (60 min) stood at 60.9%. Besides, the inhibition at 10 µM on KARS1 and 37LR came out at 69.2%.
As to `COc1ccc(CCN(c2nc3cccc(F)c3s2)C(C)c2ccc(N3CC[C@H](C(=O)O)C3)cc2)cc1` (stereo partly drawn) [Compound 42, (3S)-1-(4-(1-((7-fluorobenzo[d]thiazol-2-yl)(4-methoxyphenethyl)-amino)ethyl)phenyl)pyrrolidine-3-carboxylic acid], in the series with Raw 264.7 cells, the inhibition at 3 µM came out at 63.1%. In addition, the “Metabolic stability (% remaining at 30 min) Rat” value in series [1] is 43%. Besides, in the series on Raw264.7 cells, the inhibition at 1 µM was determined as 85.8%. The “Metabolic stability (% remaining at 30 min) Human” value in series [2] was found to be 76%. In series [3] (10 mg/kg, po, 10 mpk), the concentration peaked (Cmax) at 240 ng/mL, the Tmax was 0.67 h and the half-life was 1.32 h. The molecule further returned an AUC in series [3] (po, 10 mg/kg, 10 mpk) of 1420 ng·h/mL. The inhibition at 10 µM on KARS1 and 37LR came to 65.6%.
For `COc1ccc(CCN(Cc2ccc(N3CCC(C(=O)O)C3)cc2)c2nc3cccc(F)c3s2)cc1` (stereo not drawn) [Compound 13, 1-(4-(((7-fluorobenzo[d]thiazol-2-yl)(4-methoxyphenethyl)amino)-methyl)phenyl)pyrrolidine-3-carboxylic acid], in the series with Raw 264.7 cells, the inhibition at 3 µM was 90%. Moreover, the “Metabolic stability (% remaining at 30 min) Rat” value in [1] is recorded as 90%. For the same molecule, the inhibition at 1 µM in the series on Raw264.7 cells came to 93.4%. Further, in series [2], the “Metabolic stability (% remaining at 30 min) Human” value is 74%. The molecule also gave an inhibition at 10 µM at KARS1 and 37LR of 83.9%.
